According to ChEMBL document CHEMBL1201862, “PubChem BioAssay data set” (2004):
Active and inactive are the calls of the source.

Tests used:
[1] = inhibitors of Vif binding to APOBEC3G peptide, primary screen, biochemical, TR-FRET, GST-Vif 1-94, biotin-A3G peptide, dose response retest (AID 1117319); format: functional;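 note: TR-FRET signal of purified GST-Vif binding a biotinylated A3G peptide; inhibitors lower the FRET signal by blocking Vif and A3G binding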
[2] = target: Voltage-dependent T-type calcium channel subunit alpha-1H (Homo sapiens, UniProt O95180); format: functional;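 note: channel activity triggered by adding a high calcium stimulation buffer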
Sequence of Voltage-dependent T-type calcium channel subunit alpha-1H (O95180 whole entry): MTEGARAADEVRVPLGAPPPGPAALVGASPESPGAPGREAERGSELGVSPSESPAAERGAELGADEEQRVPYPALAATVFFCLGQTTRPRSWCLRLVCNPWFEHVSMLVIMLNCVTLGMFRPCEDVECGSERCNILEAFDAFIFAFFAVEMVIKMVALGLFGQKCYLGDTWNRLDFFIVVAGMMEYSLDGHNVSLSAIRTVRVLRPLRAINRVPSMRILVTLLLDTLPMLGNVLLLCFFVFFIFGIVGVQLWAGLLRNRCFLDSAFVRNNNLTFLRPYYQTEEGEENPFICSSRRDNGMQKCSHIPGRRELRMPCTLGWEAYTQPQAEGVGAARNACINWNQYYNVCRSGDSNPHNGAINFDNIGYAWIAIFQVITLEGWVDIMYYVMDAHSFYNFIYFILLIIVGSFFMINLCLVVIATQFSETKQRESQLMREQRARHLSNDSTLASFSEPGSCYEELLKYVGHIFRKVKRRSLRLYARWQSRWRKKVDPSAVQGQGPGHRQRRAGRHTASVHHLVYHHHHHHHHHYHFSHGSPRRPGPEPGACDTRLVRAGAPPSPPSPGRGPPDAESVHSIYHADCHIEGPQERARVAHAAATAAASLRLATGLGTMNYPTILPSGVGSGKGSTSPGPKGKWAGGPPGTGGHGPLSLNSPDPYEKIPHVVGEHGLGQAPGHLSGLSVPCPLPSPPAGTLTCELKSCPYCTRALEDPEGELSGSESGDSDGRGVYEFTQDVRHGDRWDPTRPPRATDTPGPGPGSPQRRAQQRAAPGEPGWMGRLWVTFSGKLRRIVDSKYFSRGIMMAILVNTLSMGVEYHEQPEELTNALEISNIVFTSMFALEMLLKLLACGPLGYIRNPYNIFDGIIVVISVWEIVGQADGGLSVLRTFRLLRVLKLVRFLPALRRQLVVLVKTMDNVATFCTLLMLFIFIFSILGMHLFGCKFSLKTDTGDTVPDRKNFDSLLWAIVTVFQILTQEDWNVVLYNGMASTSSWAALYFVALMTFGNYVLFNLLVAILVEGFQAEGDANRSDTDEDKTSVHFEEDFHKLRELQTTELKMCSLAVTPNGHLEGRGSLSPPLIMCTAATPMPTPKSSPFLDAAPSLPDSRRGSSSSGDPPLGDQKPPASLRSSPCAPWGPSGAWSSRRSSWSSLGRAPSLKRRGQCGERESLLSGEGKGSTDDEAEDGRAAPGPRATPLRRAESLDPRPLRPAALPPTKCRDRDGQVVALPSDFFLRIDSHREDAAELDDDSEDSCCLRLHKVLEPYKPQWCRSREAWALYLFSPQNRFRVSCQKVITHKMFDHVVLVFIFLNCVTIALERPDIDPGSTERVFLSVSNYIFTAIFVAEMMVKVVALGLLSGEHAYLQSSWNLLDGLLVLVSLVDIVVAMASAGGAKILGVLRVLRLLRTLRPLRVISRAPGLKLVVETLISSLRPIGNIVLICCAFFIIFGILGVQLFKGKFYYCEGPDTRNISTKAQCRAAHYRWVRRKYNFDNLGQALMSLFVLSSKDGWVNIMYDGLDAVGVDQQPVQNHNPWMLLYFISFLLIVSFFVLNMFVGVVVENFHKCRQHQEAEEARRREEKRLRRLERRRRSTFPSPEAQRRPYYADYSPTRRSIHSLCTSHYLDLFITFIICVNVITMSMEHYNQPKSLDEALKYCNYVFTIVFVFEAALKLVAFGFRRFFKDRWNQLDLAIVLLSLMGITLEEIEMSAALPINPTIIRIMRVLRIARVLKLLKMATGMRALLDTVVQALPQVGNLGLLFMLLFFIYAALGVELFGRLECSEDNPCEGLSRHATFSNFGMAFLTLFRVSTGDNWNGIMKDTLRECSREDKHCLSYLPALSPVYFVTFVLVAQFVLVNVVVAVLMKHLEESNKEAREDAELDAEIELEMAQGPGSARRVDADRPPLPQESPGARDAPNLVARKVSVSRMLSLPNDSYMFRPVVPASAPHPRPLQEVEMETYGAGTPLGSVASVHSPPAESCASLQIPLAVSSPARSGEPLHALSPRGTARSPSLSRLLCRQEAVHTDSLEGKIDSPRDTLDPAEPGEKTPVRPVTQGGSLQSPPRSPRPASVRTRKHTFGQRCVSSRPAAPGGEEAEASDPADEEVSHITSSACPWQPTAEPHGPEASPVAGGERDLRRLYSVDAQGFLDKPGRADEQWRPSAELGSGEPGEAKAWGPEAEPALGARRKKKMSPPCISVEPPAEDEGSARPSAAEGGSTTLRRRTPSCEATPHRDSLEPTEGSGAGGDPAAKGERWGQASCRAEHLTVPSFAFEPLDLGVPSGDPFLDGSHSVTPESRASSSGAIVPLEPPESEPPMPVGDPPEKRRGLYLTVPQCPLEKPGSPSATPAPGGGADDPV

[3] = HEp-2 cell cytotoxicity, dose response, cytotoxicity control for RSV inhibitor project, HTS (AID 2410); format: functional; conditions: human respiratory syncytial virus
cells [4] = test: cells
Vero [5] = test: cells; format: functional, cell-based; conditions: Chlorocebus sabaeus
[6] = target: Eukaryotic translation initiation factor 4E (Mus musculus, UniProt P63073); test: eIF4E–eIF4G protein interaction inhibitors, dose response, biochemical, TR-FRET (AID 855); format: functional;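 note: potency for disrupting eIF4E binding to eIF4GI seen as loss of FRET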
Sequence of Eukaryotic translation initiation factor 4E (P63073 whole entry): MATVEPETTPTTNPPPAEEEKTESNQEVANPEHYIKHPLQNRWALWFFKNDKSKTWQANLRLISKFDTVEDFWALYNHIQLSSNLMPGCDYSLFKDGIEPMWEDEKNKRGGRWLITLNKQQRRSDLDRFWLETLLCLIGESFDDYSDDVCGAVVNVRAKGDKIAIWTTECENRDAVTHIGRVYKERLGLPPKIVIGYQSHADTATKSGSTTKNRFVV

[7] = target: T1, E3 ubiquitin-protein ligase XIAP (Homo sapiens, UniProt P98170); test: XIAP antagonists, biochemical, IAP family, fluorescence polarization (AID 1018); format: functional
T1 sequence (P98170 whole entry): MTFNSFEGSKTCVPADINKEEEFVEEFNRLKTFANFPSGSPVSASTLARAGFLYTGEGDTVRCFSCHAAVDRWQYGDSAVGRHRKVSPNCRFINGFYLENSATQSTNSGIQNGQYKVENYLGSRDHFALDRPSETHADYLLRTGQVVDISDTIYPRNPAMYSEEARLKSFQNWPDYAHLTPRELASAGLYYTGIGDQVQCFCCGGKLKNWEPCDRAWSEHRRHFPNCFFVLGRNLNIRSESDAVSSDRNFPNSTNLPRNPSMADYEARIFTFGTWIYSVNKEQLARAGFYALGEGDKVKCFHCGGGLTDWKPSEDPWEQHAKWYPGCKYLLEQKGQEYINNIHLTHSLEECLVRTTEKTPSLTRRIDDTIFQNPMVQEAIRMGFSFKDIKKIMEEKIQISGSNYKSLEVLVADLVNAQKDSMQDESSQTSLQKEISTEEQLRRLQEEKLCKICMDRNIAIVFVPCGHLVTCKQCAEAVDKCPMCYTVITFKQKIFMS

[8] = target: T1, E3 ubiquitin-protein ligase XIAP; test: Counter Screen using XIAP-Bir3 for Chemical Antagonists of Bir1/2 domains of IAP-family anti-apoptotic proteins. [Related pubchem assays (depositor defined):AID1018, AID1449, AID1514, AID1638, AID1749, AID1750, AID488957, AID488963]
[9] = Luminescence Cell-Based Dose Confirmation HTS to Identify Activators of 5'UTR Stem-Loop Driven Alpha-Synuclein mRNA Translation in H4 Neuroglioblastoma Cells. [Related pubchem assays: 1829 (Project Summary), 1814 (Primary HTS)]; format: functional
[10] = target: T2, Short transient receptor potential channel 4 (Mus musculus, UniProt Q9QUQ5); test: mouse TRPC4 channel activators, dose response, cell-based, HEK293 TRPC4/mu-opioid, Fluo-4 calcium (AID 434937); format: functional
T2 sequence (Q9QUQ5 whole entry): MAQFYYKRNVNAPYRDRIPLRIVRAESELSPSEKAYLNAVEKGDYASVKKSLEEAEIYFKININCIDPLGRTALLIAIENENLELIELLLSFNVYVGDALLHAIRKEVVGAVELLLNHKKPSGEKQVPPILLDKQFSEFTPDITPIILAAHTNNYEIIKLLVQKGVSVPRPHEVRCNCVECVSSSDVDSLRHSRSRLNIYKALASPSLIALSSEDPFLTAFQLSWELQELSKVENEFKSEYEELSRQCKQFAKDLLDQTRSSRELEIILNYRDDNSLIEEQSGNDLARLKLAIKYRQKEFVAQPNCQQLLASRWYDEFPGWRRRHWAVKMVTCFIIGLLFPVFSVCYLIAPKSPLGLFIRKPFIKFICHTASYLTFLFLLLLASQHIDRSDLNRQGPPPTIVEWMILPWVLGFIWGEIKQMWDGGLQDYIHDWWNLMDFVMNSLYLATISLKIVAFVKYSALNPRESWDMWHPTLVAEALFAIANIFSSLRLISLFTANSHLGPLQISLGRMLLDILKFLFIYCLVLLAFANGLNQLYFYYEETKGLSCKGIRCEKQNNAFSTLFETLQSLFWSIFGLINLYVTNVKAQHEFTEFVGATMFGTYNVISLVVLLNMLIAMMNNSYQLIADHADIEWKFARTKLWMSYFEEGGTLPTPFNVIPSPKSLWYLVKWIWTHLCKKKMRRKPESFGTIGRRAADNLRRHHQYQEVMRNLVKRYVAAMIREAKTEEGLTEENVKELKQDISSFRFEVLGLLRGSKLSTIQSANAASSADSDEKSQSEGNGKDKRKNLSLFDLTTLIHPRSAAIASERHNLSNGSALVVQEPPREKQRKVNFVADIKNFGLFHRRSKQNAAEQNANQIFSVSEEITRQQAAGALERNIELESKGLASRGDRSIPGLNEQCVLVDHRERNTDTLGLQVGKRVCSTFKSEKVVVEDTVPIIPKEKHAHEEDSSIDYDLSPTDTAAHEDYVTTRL

H4 = test: Luminescence Cell-Based Dose Response HTS to Identify Activators of 5'UTR Stem-Loop Driven Prion Protein mRNA Translation in H4 Neuroglioblastoma Cells. [Related pubchem assays: 1829 (Project Summary), 1814 (Primary HTS)]; format: functional; conditions: Homo sapiens
[11] = Luminescence Cell-Based Dose Response HTS to Identify Activators of Luciferase Translation or Activity in H4 […] Cells. [Related pubchem assays: 1829 (Project Summary), 1814 (Primary HTS)]; format: functional
cells [12] = format: functional
[13] = THP-1 cell cytotoxicity, dose response, cytotoxicity control for non-replicating M. tuberculosis project (AID 489025); format: functional
Vero [14] = test: cells; format: functional; conditions: Chlorocebus sabaeus
[15] = microbe, parasite or virus in culture; format: functional; conditions: Mycobacterium tuberculosis
[16] = HepG2 cell cytotoxicity, dose response, cytotoxicity control for non-replicating M. tuberculosis project (AID 489018); format: functional; conditions: Mycobacterium tuberculosis
[17] = Vero E6 cell cytotoxicity, dose response, cytotoxicity control for non-replicating M. tuberculosis project, secondary assay (AID 492998); format: functional, VeroE6; conditions: Vero C1008
Estrogen receptor beta [18] = target: T3, Estrogen receptor beta (Homo sapiens, UniProt Q92731); test: ERβ–SRC-3 coactivator interaction inhibitors, confirmation, orthogonal assay, biochemical, ELISA, streptavidin-HRP readout (AID 1060)
T3 sequence (Q92731 whole entry): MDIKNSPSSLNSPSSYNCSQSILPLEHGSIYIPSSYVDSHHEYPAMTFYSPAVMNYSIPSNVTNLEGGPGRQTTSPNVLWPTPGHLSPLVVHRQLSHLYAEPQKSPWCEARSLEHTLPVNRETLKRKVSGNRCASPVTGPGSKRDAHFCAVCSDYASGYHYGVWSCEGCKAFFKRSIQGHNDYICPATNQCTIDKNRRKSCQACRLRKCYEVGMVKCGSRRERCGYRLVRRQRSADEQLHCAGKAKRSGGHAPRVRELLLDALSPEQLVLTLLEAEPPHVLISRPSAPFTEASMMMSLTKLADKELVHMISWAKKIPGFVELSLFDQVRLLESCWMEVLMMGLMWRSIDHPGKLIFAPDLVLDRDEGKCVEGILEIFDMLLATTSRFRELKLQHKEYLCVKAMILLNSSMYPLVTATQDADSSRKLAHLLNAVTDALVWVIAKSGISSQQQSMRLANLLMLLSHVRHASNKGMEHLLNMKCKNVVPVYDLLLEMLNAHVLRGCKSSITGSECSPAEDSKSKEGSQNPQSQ

Estrogen receptor beta [19] = target: T3, Estrogen receptor beta
[20] = Jurkat T cell cytotoxicity, dose response, cytotoxicity control for P. falciparum gametocyte viability project, luminescence (AID 1117277); format: functional, cell-based;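 note: potency reflects loss of cellular ATP meaning fewer viable cells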
[21] = P. falciparum late gametocyte killing, dose response, luminescence (AID 1117278); format: functional, cell-based;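 note: gametocytes exposed to compound for 24 hours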
Bcl-2-related protein A1 = target: T4, Bcl-2-related protein A1 (Mus musculus, UniProt Q07440); format: functional;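 note: confirmatory dose–response counterscreen on Bfl-1, used to check hits from a UBC13 polyubiquitin inhibitor campaign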
T4 sequence (Q07440 whole entry): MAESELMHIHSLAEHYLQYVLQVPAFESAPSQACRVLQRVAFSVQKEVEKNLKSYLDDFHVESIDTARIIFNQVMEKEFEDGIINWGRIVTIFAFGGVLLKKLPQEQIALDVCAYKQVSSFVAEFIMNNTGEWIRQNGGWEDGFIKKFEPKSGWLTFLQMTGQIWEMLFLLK

[22] = target: T5, Ubiquitin-conjugating enzyme E2 N (Homo sapiens, UniProt P61088); format: functional;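 note: Dose-response confirmation in a TR-FRET assay detecting UBC13-driven polyubiquitin chain formation, inhibition measured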
T5 sequence (P61088 whole entry): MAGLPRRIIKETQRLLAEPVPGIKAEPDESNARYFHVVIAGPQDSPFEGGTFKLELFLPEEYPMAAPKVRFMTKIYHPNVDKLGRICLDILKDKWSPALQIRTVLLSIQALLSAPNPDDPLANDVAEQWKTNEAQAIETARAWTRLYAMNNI

[23] = tested on: Streptococcus sp. 'group A'; test: growth inhibition of control SK(-) GAS strain, dose response, counter-screen for streptokinase expression inhibitor project, luminescence, kanamycin, BacTiterGlo, confirmation (AID 1900); format: functional, organism-based
Streptokinase A = target: T6, Streptokinase A (Streptococcus pyogenes serotype M1, UniProt P10520); test: S. pyogenes streptokinase expression inhibitors, potency, dose response, plasminogen activation absorbance, OD405 (AID 1914); format: functional, Streptococcus pyogenes M1 GAS;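 note: secreted streptokinase activity via plasminogen activation per viability signal from cell pellet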
T6 sequence (P10520 whole entry): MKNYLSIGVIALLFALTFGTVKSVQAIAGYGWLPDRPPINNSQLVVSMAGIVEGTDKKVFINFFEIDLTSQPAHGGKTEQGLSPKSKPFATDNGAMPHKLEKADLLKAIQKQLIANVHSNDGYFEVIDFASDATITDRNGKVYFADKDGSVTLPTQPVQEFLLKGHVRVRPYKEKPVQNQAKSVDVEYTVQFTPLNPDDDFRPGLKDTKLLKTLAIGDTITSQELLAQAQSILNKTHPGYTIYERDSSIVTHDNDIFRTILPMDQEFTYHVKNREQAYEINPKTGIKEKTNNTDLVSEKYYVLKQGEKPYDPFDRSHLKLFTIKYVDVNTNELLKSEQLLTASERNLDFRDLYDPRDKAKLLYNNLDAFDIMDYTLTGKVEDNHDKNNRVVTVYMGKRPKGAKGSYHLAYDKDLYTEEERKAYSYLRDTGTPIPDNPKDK

Streptococcus = test: Group A Streptococcus viability loss, dose response, counter-screen for streptokinase expression inhibitor project, luminescence, BacTiterGlo (AID 1915); format: functional, organism-based;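 note: potency for reduction of bacterial viability or growth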

Compound: COC(=O)c1sc(NC(=O)c2ccc(Cn3cc(Cl)cn3)o2)c(C#N)c1C
- IC50 [1]: > 100 µM (active)

Compound: Cc1nn(Cc2ccc(Cl)c(Cl)c2)c(C)c1NC(=O)c1cc(-c2ccco2)on1
- EC50 [2]: 1.35 µM (active)

Compound: CC1Cc2ccccc2N1C(=O)c1cc2sccc2n1Cc1ccc(F)cc1 (stereo not given)
- EC50 [2]: 5.86 µM (active)

Compound: O=S(=O)(c1cccc(-c2csc(-c3ccccc3)n2)c1)N1CCOCC1
- CC50 [3]: 37.8 µM (active)
- IC50 (cells [4]): 28.4 µM (active)

Compound: Cc1ccc(Nc2nc(=O)c3cccnc3s2)c(Br)c1
- CC50 [3]: 22.8 µM (active)
- IC50 (cells [4]): 25 µM (active)
- IC50 (Vero [5]): > 25 µM (active)

Compound: Cc1ccc(Nc2nc3ccccc3nc2-n2nc(C)cc2C)cc1
- IC50 [6]: > 64 µM (inactive)

Compound: O=C(NCc1cccs1)c1noc2c1CCCCC2
- IC50 [7]: > 100 µM (not active)
- IC50 [8]: > 100 µM (inactive)

Compound: Clc1ccc2sc(C3CCNCC3)nc2c1
- EC50 [9]: 141 nM (active)
- EC50 [10]: 8 nM (active)
- EC50 (H4): 168 nM (active)
- EC50 [11]: 42.4 µM (active)

Compound: Cc1cccc(/C=C/c2onc(C)c2[N+](=O)[O-])n1
- IC50 (cells [12]): 8.06 µM (active)
- CC50 [13]: 7.76 µM (active)
- CC50 (Vero [14]): 13.8 µM (active)
- CC50 [15]: 14.3 µM (active)
- CC50 [16]: > 20 µM (active)
- CC50 [17]: 6.87 µM (active)

Compound: C=CCN1C(=O)CSc2ccc(C(=O)NCc3ccco3)cc21
- IC50 [1]: > 100 µM (active)

Compound: O=C(CSCC(=O)N1CCN(c2ccccc2)CC1)Nc1nc(-c2ccc(Cl)s2)cs1
- EC50 [2]: 4.28 µM (active)

Compound: CCCC(c1nnnn1CC(=O)OCC)N(Cc1cc2c(C)cc(C)cc2nc1O)C1CCCC1 (stereo not given)
- IC50 (cells [4]): 6.29 µM (active)

Compound: CSc1nnc(Cn2c(=O)sc3ccccc32)n1-c1cccc(Cl)c1
- CC50 [3]: > 50 µM (active)
- IC50 (cells [4]): 8.48 µM (active)

Compound: COCCNC(C)C(=O)C12CC3CC(CC(C3)C1)C2 (stereo not given)
- IC50 [1]: > 100 µM (active)

Compound: Cc1cc(C)nc(N2CCCC(C(=O)Nc3cc(F)ccc3C)C2)n1 (stereo not given)
- IC50 [7]: > 100 µM (not active)
- IC50 [8]: > 100 µM (inactive)

Compound: Cc1cc(CNC(=O)COc2ccccc2)c2ccccc2n1
- IC50 [7]: > 100 µM (not active)
- IC50 [8]: > 100 µM (inactive)

Compound: Nc1c(Cl)cc(Cl)cc1C(=O)OCC(=O)NC1CC1
- IC50 (Estrogen receptor beta [18]): < 23 nM (not active)
- IC50 (Estrogen receptor beta [19]): 26.5 µM (active)

Compound: COc1cc(C(=O)NCc2ccc(C(=O)NCC(OC)OC)cc2)cc(OC)c1OC
- IC50 [6]: 50 µM (inactive)

Compound: COC(=O)CSc1nnc(-c2cccc(NC(=O)c3ccc(C)cc3)c2)n1C
- IC50 [6]: > 64 µM (inactive)

Compound: O=C(Cn1cnc2c(oc3ccccc32)c1=O)N1CCCC1
- IC50 [20]: > 83.4 µM (inactive)
- IC50 [21]: > 109 µM (inactive)

Compound: CC1CCCC(C)N1CC(=O)Nc1sc2c(c1C#N)CCCC2 (stereo not given)
- IC50 (Estrogen receptor beta [18]): 37.2 nM (not active)

Compound: N#Cc1ccc(OCC(=O)NNC(=S)NC(=O)C2CC2)cc1
- IC50 (Bcl-2-related protein A1): > 20 µM (inactive)
- IC50 [22]: 6.5 µM (active)

Compound: O=C(N/N=C/c1cc([N+](=O)[O-])cc(Br)c1O)C12CC3CCC(CC(C3)C1)C2
- EC50 [23]: 4.67 µM (active)
- CC50 (Vero [14]): > 25 µM (active)
- EC50 [10]: 2990 nM (active)
- EC50 (Streptokinase A): > 150 µM (not active)
- EC50 (Streptococcus): 19.7 µM (active)
